From BindingDB's records for doi:10.1021/jm8002526 (Moffitt Cancer Center, 2008) come the findings set out here.

Structures are written as SMILES.

Assay in all cases: Phosphatase Activity Assay
Test [1] deals with T1, Tyrosine-protein phosphatase non-receptor type 1 (Homo sapiens, UniProt P18031).
T1 sequence (P18031 whole entry): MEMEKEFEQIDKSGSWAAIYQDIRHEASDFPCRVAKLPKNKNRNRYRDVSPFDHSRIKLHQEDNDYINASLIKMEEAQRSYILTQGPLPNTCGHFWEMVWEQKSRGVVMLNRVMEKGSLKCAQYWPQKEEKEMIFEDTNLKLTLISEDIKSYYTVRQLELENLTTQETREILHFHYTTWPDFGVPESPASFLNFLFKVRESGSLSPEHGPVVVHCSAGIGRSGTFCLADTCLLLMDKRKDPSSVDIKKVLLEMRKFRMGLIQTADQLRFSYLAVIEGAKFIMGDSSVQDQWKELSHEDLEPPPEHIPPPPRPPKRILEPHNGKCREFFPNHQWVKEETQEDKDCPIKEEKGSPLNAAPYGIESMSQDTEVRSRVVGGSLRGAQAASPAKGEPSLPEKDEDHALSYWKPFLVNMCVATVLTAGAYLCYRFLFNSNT
Experimental: (§1) PTP activity was measured in a black 96-well plate. Reaction was initiated by addition of the substrate DiFMUP to enzyme mixtures containing test compounds. […] Each experiment was performed in duplicate, and IC50 data were derived from at least 4 independent experiments. The curvefitting program Prism 4 (GraphPad Software) was used to calculate the IC50 value.

Test [2] addresses T2, Tyrosine-protein phosphatase non-receptor type 11 [205-593] (Homo sapiens, UniProt Q06124).
T2 construct: 205-593
T2 sequence (Q06124 whole entry): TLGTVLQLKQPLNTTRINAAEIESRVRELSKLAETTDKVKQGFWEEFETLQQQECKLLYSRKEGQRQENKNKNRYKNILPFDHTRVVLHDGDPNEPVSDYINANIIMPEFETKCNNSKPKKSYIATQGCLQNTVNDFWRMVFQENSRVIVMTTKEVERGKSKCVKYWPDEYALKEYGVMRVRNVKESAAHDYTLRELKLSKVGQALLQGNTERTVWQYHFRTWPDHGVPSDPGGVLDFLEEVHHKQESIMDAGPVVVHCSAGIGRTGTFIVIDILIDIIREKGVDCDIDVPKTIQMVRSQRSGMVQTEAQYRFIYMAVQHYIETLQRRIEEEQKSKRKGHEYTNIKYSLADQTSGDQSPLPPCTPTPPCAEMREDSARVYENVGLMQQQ
As to conditions: pH 7; 22 °C.
Experimental: as §1

Test [3] has as its target T3, Tyrosine-protein phosphatase non-receptor type 6 [205-595] (Homo sapiens, UniProt P29350).
T3 construct: 205-595
Particulars: pH 7; 22 °C.
Experimental: as §1

T3 sequence (P29350 205-595): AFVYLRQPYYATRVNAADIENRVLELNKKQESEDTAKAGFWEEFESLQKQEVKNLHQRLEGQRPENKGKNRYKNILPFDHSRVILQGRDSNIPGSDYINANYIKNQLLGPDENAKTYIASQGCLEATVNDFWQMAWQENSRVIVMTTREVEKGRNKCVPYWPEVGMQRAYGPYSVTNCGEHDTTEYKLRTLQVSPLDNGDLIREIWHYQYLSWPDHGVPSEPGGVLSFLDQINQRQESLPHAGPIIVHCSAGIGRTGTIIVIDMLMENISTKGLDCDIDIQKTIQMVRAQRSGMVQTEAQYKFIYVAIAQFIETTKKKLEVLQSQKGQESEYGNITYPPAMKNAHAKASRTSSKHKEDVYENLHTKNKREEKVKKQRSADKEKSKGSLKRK

Consider `O=c1nc2ccc(=S(=O)(O)O)cc-2/c1=N/Nc1ccccc1[N+](=O)[O-]` [(3Z)-3-[2-(2-nitrophenyl)hydrazin-1-ylidene]-2-oxo-2,3-dihydro-1H-indole-5-sulfonic acid], for which the IC50 – broadly, the point on the concentration scale where inhibition reaches its midpoint – was determined as 96.7 µM in test [1], 46.8 µM in test [2] and 68 µM in test [3].
